Measurements from publication PMC6467542 (Bioorganic & Medicinal Chemistry, 2019).
Converted amounts (≈) assume the structure as drawn.

Experiments:
M. tb (strain H37Rv) [1] = assay: MIC90 against replicating M.tb (MABA); type: cell-based, Mycobacterium tuberculosis; details: aerobic (replicating) conditions, 90% inhibition of growth; for MIC90: Mycobacterium tuberculosis
M. tb (strain H37Rv) [2] = assay: MIC90 against non-replicating M.tb (LORA); type: cell-based, Mycobacterium tuberculosis; details: for MIC90: Mycobacterium tuberculosis, H37RV, read-out: MIC90 LORA
Experimental: In these assays, 1 is a potent inhibitor, with MICs of 0.08 and 0.12 µg/mL, respectively. Replacement of the naphthalene C-unit of 1 with various pyridyls produced analogues of considerably lower lipophilicity, with clogP values ranging from 6.89 down to 2.98.

in vitro [3] = details: mouse, microsomes
hERG potassium channel = hERG potassium channel (Homo sapiens, UniProt Q12809); assay: Inhibition of hERG potassium current (patch clamp electrophysiology); details: for hERG % inhibition at 3 µM: manual or (less accurate) QPatch assay
Chain of hERG potassium channel (Q12809 whole entry): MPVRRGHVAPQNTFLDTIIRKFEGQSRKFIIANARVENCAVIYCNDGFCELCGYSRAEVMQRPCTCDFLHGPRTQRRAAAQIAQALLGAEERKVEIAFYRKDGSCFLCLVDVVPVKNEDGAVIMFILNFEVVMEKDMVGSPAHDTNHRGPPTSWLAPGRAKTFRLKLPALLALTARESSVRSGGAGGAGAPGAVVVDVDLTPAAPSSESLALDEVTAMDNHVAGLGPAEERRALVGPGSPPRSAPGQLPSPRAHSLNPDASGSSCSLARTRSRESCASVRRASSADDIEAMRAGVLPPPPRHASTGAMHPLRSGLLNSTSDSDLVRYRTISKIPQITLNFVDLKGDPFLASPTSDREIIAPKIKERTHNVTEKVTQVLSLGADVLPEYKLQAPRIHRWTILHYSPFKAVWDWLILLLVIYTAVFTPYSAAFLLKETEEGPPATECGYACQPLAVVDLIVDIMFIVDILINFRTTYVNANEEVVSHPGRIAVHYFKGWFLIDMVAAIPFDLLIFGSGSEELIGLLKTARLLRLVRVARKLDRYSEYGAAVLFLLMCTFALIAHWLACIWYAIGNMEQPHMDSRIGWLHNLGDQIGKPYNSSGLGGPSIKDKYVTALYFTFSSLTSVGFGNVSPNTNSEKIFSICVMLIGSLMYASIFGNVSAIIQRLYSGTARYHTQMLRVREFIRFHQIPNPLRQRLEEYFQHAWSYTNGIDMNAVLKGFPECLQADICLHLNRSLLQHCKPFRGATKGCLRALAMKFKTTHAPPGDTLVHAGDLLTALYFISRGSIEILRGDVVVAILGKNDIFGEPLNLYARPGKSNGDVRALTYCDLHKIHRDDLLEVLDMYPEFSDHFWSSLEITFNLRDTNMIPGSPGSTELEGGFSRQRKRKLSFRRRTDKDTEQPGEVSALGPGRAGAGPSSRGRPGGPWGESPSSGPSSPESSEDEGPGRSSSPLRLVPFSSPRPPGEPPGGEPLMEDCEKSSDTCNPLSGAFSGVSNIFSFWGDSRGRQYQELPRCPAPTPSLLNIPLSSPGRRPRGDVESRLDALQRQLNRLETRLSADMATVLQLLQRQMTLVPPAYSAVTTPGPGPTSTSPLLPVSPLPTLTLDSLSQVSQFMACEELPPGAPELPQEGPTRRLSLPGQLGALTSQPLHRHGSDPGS

in vitro [4] = details: human, microsomes
[5] = mouse, in vivo

With “1-(7-bromo-3-methoxynaphthalen-2-yl)-1-(2,3-dimethoxyphenyl)-4-(dimethylamino)-2-(2,6-dimethylpyridin-4-yl)butan-2-ol [Compound 56]” the “MIC90 MABA” value (M. tb (strain H37Rv) [1]) was 0.04 µg/mL and the “MIC90 LORA” value (M. tb (strain H37Rv) [2]; M.tb H37Rv, non-replicating conditions, 90% inhibition of growth) was 0.07 µg/mL.

In the case of COc1cccc(C(c2cc3cc(Br)ccc3nc2OC)C(O)(CCN(C)C)c2cccc(C)n2)c1OC (centres unmarked) [Compound 2], the MIC90 (M. tb (strain H37Rv) [1]) is reported as 0.4 µg/mL (≈ 0.689 µM) and the MIC90 (M. tb (strain H37Rv) [2]) is reported as 0.13 µg/mL (≈ 0.224 µM).

COc1cccc(C(c2cc3cc(C#N)ccc3nc2OC)C(O)(CCN(C)C)c2cccc(C)n2)c1OC (centres unmarked) [Compound 3] gave an MIC90 (M. tb (strain H37Rv) [1]) of 4.1 µg/mL (≈ 7.79 µM) and an MIC90 (M. tb (strain H37Rv) [2]) of 1.9 µg/mL (≈ 3.61 µM).

In the case of COc1cccc(C(c2cc3cc(Br)ccc3nc2OC)C(O)(CCN(C)C)c2cccc(C)n2)c1F (centres unmarked) [Compound 4], the microsomal CLint (in vitro [3]) is reported as 39 µL/min/mg, the “hERG % inhibition at 3 µM” value (hERG potassium channel) is reported as 34%/3 and the MIC90 (M. tb (strain H37Rv) [1]) is reported as 0.29 µg/mL (≈ 0.51 µM). It also gave a microsomal CLint (in vitro [4]) of 10 µL/min/mg and an MIC90 (M. tb (strain H37Rv) [2]) of 2 µg/mL (≈ 3.52 µM).

COc1cccc(C(c2cc3cc(C#N)ccc3nc2OC)C(O)(CCN(C)C)c2cccc(C)n2)c1F (centres unmarked) [Compound 5] showed an MIC90 (M. tb (strain H37Rv) [1]) of 1.1 µg/mL (≈ 2.14 µM) and an MIC90 (M. tb (strain H37Rv) [2]) of 1.8 µg/mL (≈ 3.5 µM).

Work on COc1cccc(C(c2cc3cc(Br)ccc3nc2OC)C(O)(CCN(C)C)c2cc(C)ccn2)c1F (centres unmarked) [Compound 6] yielded an MIC90 (M. tb (strain H37Rv) [1]) of 0.6 µg/mL (≈ 1.06 µM) and an MIC90 (M. tb (strain H37Rv) [2]) of 2.1 µg/mL (≈ 3.69 µM).

With COc1cccc(C(c2cc3cc(Br)ccc3nc2OC)C(O)(CCN(C)C)c2ncccc2C)c1F (centres unmarked) [Compound 7] the MIC90 (M. tb (strain H37Rv) [1]) was 0.19 µg/mL (≈ 0.334 µM) and the MIC90 (M. tb (strain H37Rv) [2]) was 0.4 µg/mL (≈ 0.704 µM).

COc1cccc(C(c2cc3cc(C#N)ccc3nc2OC)C(O)(CCN(C)C)c2ncccc2C)c1F (centres unmarked) [Compound 8] gave an MIC90 (M. tb (strain H37Rv) [1]) of 3 µg/mL (≈ 5.83 µM) and an MIC90 (M. tb (strain H37Rv) [2]) of 3.5 µg/mL (≈ 6.8 µM).

COc1cccc(C(c2cc3cc(Br)ccc3nc2OC)C(O)(CCN(C)C)c2cc(C)cc(C)n2)c1OC (centres unmarked) [Compound 9] gave an MIC90 (M. tb (strain H37Rv) [1]) of 0.28 µg/mL (≈ 0.471 µM) and an MIC90 (M. tb (strain H37Rv) [2]) of 0.3 µg/mL (≈ 0.505 µM).

COc1cccc(C(c2cc3cc(C#N)ccc3nc2OC)C(O)(CCN(C)C)c2cc(C)cc(C)n2)c1OC (centres unmarked) [Compound 10] showed an MIC90 (M. tb (strain H37Rv) [1]) of 0.54 µg/mL (≈ 0.999 µM) and an MIC90 (M. tb (strain H37Rv) [2]) of 0.62 µg/mL (≈ 1.15 µM).

In the case of COc1cccc(C(c2cc3cc(Br)ccc3nc2OC)C(O)(CCN(C)C)c2cc(C)cc(C)n2)c1F (centres unmarked) [Compound 11], the MIC90 (M. tb (strain H37Rv) [1]) is reported as 0.14 µg/mL (≈ 0.24 µM) and the MIC90 (M. tb (strain H37Rv) [2]) is reported as 0.11 µg/mL (≈ 0.189 µM).

In the case of COc1cccc(C(c2cc3cc(C#N)ccc3nc2OC)C(O)(CCN(C)C)c2cc(C)cc(C)n2)c1F (centres unmarked) [Compound 12], the MIC90 (M. tb (strain H37Rv) [1]) is reported as 2.3 µg/mL (≈ 4.35 µM) and the MIC90 (M. tb (strain H37Rv) [2]) is reported as 2.8 µg/mL (≈ 5.3 µM).

In the case of COc1cccc(C(c2cc3cc(Br)ccc3nc2OC)C(O)(CCN(C)C)c2ncc(C)cc2C)c1F (centres unmarked) [Compound 13], the MIC90 (M. tb (strain H37Rv) [1]) is reported as 0.3 µg/mL (≈ 0.515 µM) and the MIC90 (M. tb (strain H37Rv) [2]) is reported as 0.46 µg/mL (≈ 0.79 µM).

COc1cccc(C(O)(CCN(C)C)C(c2cccc(C)c2)c2cc3cc(C#N)ccc3nc2OC)n1 (centres unmarked) [Compound 14] showed an MIC90 (M. tb (strain H37Rv) [1]) of 0.6 µg/mL (≈ 1.21 µM) and an MIC90 (M. tb (strain H37Rv) [2]) of 0.29 µg/mL (≈ 0.584 µM).

COc1cccc(C(O)(CCN(C)C)C(c2cc3cc(C#N)ccc3nc2OC)c2cccc3c2OCO3)n1 (centres unmarked) [Compound 16] showed an MIC90 (M. tb (strain H37Rv) [1]) of 1.2 µg/mL (≈ 2.28 µM).

COc1ccnc(C(O)(CCN(C)C)C(c2cc3cc(Br)ccc3nc2OC)c2cccc(OC)c2F)c1 (centres unmarked) [Compound 17] gave an MIC90 (M. tb (strain H37Rv) [1]) of 1.2 µg/mL (≈ 2.05 µM) and an MIC90 (M. tb (strain H37Rv) [2]) of 0.61 µg/mL (≈ 1.04 µM).

COc1ccnc(C(O)(CCN(C)C)C(c2cc3cc(C#N)ccc3nc2OC)c2cccc(OC)c2F)c1 (centres unmarked) [Compound 18] showed an MIC90 (M. tb (strain H37Rv) [1]) of 2.3 µg/mL (≈ 4.33 µM) and an MIC90 (M. tb (strain H37Rv) [2]) of 2.2 µg/mL (≈ 4.15 µM).

Compound COc1cccc(C(c2cc3cc(Br)ccc3nc2OC)C(O)(CCN(C)C)c2cccnc2C)c1OC (centres unmarked) [Compound 20] has an MIC90 (M. tb (strain H37Rv) [1]) of 0.3 µg/mL (≈ 0.517 µM) and an MIC90 (M. tb (strain H37Rv) [2]) of 0.59 µg/mL (≈ 1.02 µM).

For COc1nc2ccc(Br)cc2cc1C(c1cccc2c1OCO2)C(O)(CCN(C)C)c1cccnc1C (centres unmarked) [Compound 21], the microsomal CLint (in vitro [3]) was 51 µL/min/mg, the “hERG % inhibition at 3 µM” value (hERG potassium channel) was 13%/3 and the MIC90 (M. tb (strain H37Rv) [1]) was 0.45 µg/mL (≈ 0.797 µM). The “AUC: exposure, AUCinf” value [5] was 820 ng·h/mL, the “IV Cl: IV clearance” value ([5]; iv) was 44 mL/min/kg and the “Vz: IV apparent volume of distribution during terminal phase” value ([5]; iv) was 21 L/kg. The “F: oral bioavailability” value ([5]; po) was 19%, the microsomal CLint (in vitro [4]) was 71 µL/min/mg and the MIC90 (M. tb (strain H37Rv) [2]) was 0.56 µg/mL (≈ 0.992 µM).

In the case of COc1cccc(C(c2cc3cc(C#N)ccc3nc2OC)C(O)(CCN(C)C)c2ccc(C)nc2)c1F (centres unmarked) [Compound 23], the MIC90 (M. tb (strain H37Rv) [1]) is reported as 4.7 µg/mL (≈ 9.13 µM) and the MIC90 (M. tb (strain H37Rv) [2]) is reported as > 5 µg/mL.

Compound COc1cccc(C(c2cc3cc(Br)ccc3nc2OC)C(O)(CCN(C)C)c2ccc(C)nc2)c1OC (centres unmarked) [Compound 24] has an MIC90 (M. tb (strain H37Rv) [1]) of 0.6 µg/mL (≈ 1.03 µM) and an MIC90 (M. tb (strain H37Rv) [2]) of 0.51 µg/mL (≈ 0.879 µM).

In the case of COc1cccc(C(c2cc3cc(C#N)ccc3nc2OC)C(O)(CCN(C)C)c2ccc(C)nc2)c1OC (centres unmarked) [Compound 25], the MIC90 (M. tb (strain H37Rv) [1]) is reported as > 5 µg/mL.

Work on COc1nc2ccc(Br)cc2cc1C(c1cccc(F)c1)C(O)(CCN(C)C)c1cncc(C)c1 (centres unmarked) [Compound 26] yielded an MIC90 (M. tb (strain H37Rv) [1]) of 0.28 µg/mL (≈ 0.52 µM) and an MIC90 (M. tb (strain H37Rv) [2]) of 0.08 µg/mL (≈ 0.149 µM).

In the case of COc1nc2ccc(C#N)cc2cc1C(c1cccc(F)c1)C(O)(CCN(C)C)c1cncc(C)c1 (centres unmarked) [Compound 27], the microsomal CLint (in vitro [3]) is reported as 249 µL/min/mg, the “hERG % inhibition at 1 µM” value (hERG potassium channel; 1 µM, manual assay) is reported as 42%/1 and the MIC90 (M. tb (strain H37Rv) [1]) is reported as 1.2 µg/mL (≈ 2.48 µM). The microsomal CLint (in vitro [4]) was 122 µL/min/mg and the MIC90 (M. tb (strain H37Rv) [2]) was 0.98 µg/mL (≈ 2.02 µM).
